In ChEMBL document CHEMBL2439949, “Synthesis and structure-activity relationships of phenyl-substituted coumarins with anti-tubercular activity that target FadD32” (Bioorg Med Chem Lett, 2013):
In brackets after ≈: the same amount, converted by molar mass. Activity calls are given as the source filed them. No cut-off for these calls is given here.

Experiments:
[1] = system: Mycobacterium tuberculosis; assay: Antimycobacterial activity against Mycobacterium tuberculosis H37Rv after 7 days; assay type: functional; conditions: 168 h
HepG2 = assay: Cytotoxicity against human HepG2 cells at 125 uM after 48 hrs; assay type: cell-based; conditions: hepg2, 48 h
[2] = system: Mycobacterium tuberculosis; assay: Antimycobacterial activity against Mycobacterium tuberculosis H37Rv at 64 uM after 7 days; assay type: functional, organism-based
[3] = system: Mycobacterium tuberculosis; assay: Antimycobacterial activity against Mycobacterium tuberculosis H37Rv at 250 uM after 7 days; assay type: functional
[4] = system: Mycobacterium tuberculosis; assay: Antimycobacterial activity against Mycobacterium tuberculosis H37Rv at 62 uM after 7 days; assay type: functional, organism-based
[5] = Permeability of the compound from basolateral to apical side of human Caco2 cells at 10 uM; assay type: ADME, cell-based; conditions: Caco-2, read-out: permeability
[6] = Intrinsic clearance in Balb/c mouse liver microsomes at 100 uM; assay type: ADME, Microsome; conditions: read-out: CLH
[7] = Initial plasma concentration in Balb/c mouse at 1 mg/kg, iv; assay type: ADME, organism-based; set-up: dose 1 mg/kg, route intravenous
[8] = Clearance in Balb/c mouse at 1 mg/kg, iv; assay type: ADME, organism-based; set-up: dose 1 mg/kg, route intravenous; conditions: in vivo
[9] = Tmax in Balb/c mouse at 1 mg/kg, iv; assay type: ADME, organism-based; set-up: dose 1 mg/kg, route intravenous; conditions: in vivo
[10] = AUClast in Balb/c mouse at 10 mg/kg, po; assay type: ADME, organism-based; set-up: time 0 - last, dose 10 mg/kg, route oral; conditions: plasma
Mus musculus [11] = assay: Initial plasma concentration in Balb/c mouse at 10 mg/kg, po; assay type: ADME, organism-based; set-up: dose 10 mg/kg, route oral; conditions: in vivo
[12] = Half life in Balb/c mouse at 10 mg/kg, po; assay type: ADME, organism-based; set-up: dose 10 mg/kg, route oral; conditions: in vivo
[13] = MRTlast in Balb/c mouse at 10 mg/kg, po; assay type: ADME, organism-based; set-up: dose 10 mg/kg, route oral; conditions: in vivo
[14] = Clearance in Balb/c mouse at 10 mg/kg, po; assay type: ADME, organism-based; set-up: dose 10 mg/kg, route oral; conditions: in vivo
[15] = AUC (0 to infinity) in Balb/c mouse at 1 mg/kg, iv; assay type: ADME, organism-based; set-up: time infinity, dose 1 mg/kg, route intravenous; conditions: plasma
[16] = Tmax in Balb/c mouse at 10 mg/kg, po; assay type: ADME, organism-based; set-up: dose 10 mg/kg, route oral; conditions: in vivo
[17] = MRTlast in Balb/c mouse at 1 mg/kg, iv; assay type: ADME, organism-based; set-up: dose 1 mg/kg, route intravenous; conditions: in vivo
[18] = Metabolic stability of the compound in Balb/c mouse plasma assessed as compound remaining at 1 uM after 8 hrs; assay type: ADME, cell-free; conditions: read-out: Stability
[19] = AUClast in Balb/c mouse at 1 mg/kg, iv; assay type: ADME, organism-based; set-up: time 0 - last, dose 1 mg/kg, route intravenous; conditions: plasma
[20] = Volume of distribution in Balb/c mouse at 1 mg/kg, iv; assay type: ADME, organism-based; set-up: dose 1 mg/kg, route intravenous; conditions: in vivo
[21] = Oral bioavailability in Balb/c mouse at 10 mg/kg; assay type: ADME, organism-based; conditions: in vivo
Mus musculus [22] = assay: Volume of distribution in Balb/c mouse at 10 mg/kg, po; assay type: ADME, organism-based; set-up: dose 10 mg/kg, route oral; conditions: in vivo
[23] = Half life in Balb/c mouse liver microsomes at 100 uM; assay type: ADME, Microsome
[24] = Permeability of the compound from apical to basolateral side of human Caco2 cells at 10 uM; assay type: ADME, cell-based; conditions: Caco-2, read-out: permeability
[25] = Half life in Balb/c mouse at 1 mg/kg, iv; assay type: ADME, organism-based; set-up: dose 1 mg/kg, route intravenous; conditions: in vivo
[26] = AUC (0 to infinity) in Balb/c mouse at 10 mg/kg, po; assay type: ADME, organism-based; set-up: time infinity, dose 10 mg/kg, route oral; conditions: plasma
[27] = Solubility in water; assay type: physicochemical
[28] = Plasma protein binding in human at 1 uM after 5 hrs; assay type: ADME, cell-free; conditions: read-out: PPB (converted)
[29] = Metabolic stability of the compound in human plasma assessed as compound remaining at 1 uM after 5 hrs; assay type: ADME, cell-free; conditions: read-out: Stability
[30] = Cytotoxicity against human HepG2 cells after 48 hrs; assay type: cell-based; conditions: read-out: LD50

Work on `Cc1cc2oc(=O)cc(-c3ccccc3)c2cc1-c1ccc(CO)cc1` yielded an IC90 [1] of 68 µM.

For `C=Cc1ccc(-c2c(C)cc3oc(=O)cc(-c4ccccc4)c3c2C)cc1`, the IC90 [1] was 184 µM.

Compound `Cc1cc2oc(=O)cc(-c3ccccc3)c2c(C)c1-c1ccc(C#N)cc1` has an IC90 [1] of 295 µM.

Compound `Cc1c(-c2ccc(CO)cc2)ccc2oc(=O)cc(-c3ccccc3)c12` has an IC90 [1] of 70 µM.

`Cc1cc2oc(=O)cc(-c3ccccc3)c2c(C)c1-c1ccc(C(F)(F)F)cc1` showed an IC90 [1] of 29 µM.

For `Cc1ccc(/C=C/c2c(C)cc3oc(=O)cc(-c4ccccc4)c3c2C)cc1`, the IC90 [1] was 61 µM.

In the case of `Cc1cc2oc(=O)cc(-c3cccnc3)c2c(C)c1-c1ccc(CN2CCOCC2)cc1`, the IC90 [1] is reported as 1 µM and the Activity (HepG2) is reported as “Non-toxic”.

In the case of `Cc1cc2oc(=O)cc(-c3ccccc3)c2c(C)c1-c1cccc(C(F)(F)F)c1`, the Activity [2] is reported as “inactive”.

In the case of `Cc1cc2oc(=O)cc(-c3ccccc3)c2c(C)c1-c1ccc(CN2CCCCC2)cc1`, the IC90 [1] is reported as 19 µM and the Activity (HepG2) is reported as “Non-toxic”.

`COC(=O)c1cccc(-c2cc(=O)oc3cc(C)c(-c4ccc(CN5CCOCC5)cc4)c(C)c23)c1` gave an IC90 [1] of 59 µM.

With `Cc1cc(CO)ccc1-c1c(C)cc2oc(=O)cc(-c3ccccc3)c2c1C` the IC90 [1] was 22 µM and the Activity (HepG2) was “Non-toxic”.

Work on `CCOC(=O)Nc1cccc(-c2cc(=O)oc3cc(C)c(-c4ccc(CN5CCOCC5)cc4)c(C)c23)c1` yielded an IC90 [1] of 39 µM.

With `Cc1cc2oc(=O)cc(-c3ccccc3)c2c(C)c1-c1ccc(Cl)cc1` the IC90 [1] was 54 µM.

With `Cc1ccc(-c2c(C)cc3oc(=O)cc(C)c3c2C)cc1` the inhibition [3] was “inactive”.

For `Cc1ccc(-c2ccc3oc(=O)cc(-c4ccccc4)c3c2)cc1`, the inhibition at 250 µM ([3]; 168 h) was 24%.

`O=c1cc(-c2ccccc2)c2cc(-c3ccc(CO)cc3)ccc2o1` showed an IC90 [1] of 115 µM.

With `COc1ccc(C2=CC(=O)Cc3cc(C)c(-c4ccc(CN5CCOCC5)cc4)c(C)c32)cc1` the Activity [4] was “inactive”.

In the case of `Cc1cc2oc(=O)cc(-c3cccc([N+](=O)[O-])c3)c2c(C)c1-c1ccc(CN2CCOCC2)cc1`, the IC90 [1] is reported as 6 µM and the Activity (HepG2) is reported as “Non-toxic”.

For `Cc1cc2oc(=O)cc(-c3ccccc3)c2c(C)c1-c1ccc(CN2CCN(C)CC2)cc1`, the IC90 [1] was 5.89 µM and the Activity (HepG2) was “Non-toxic”.

For `CC(=O)Nc1cccc(-c2cc(=O)oc3cc(C)c(-c4ccc(CN5CCOCC5)cc4)c(C)c23)c1`, the IC90 [1] was 12 µM and the Activity (HepG2) was “Non-toxic”.

With `Cc1cc2oc(=O)cc(-c3ccccc3)c2c(C)c1-c1ccc(C(C)O)cc1` (stereo not drawn) the IC90 [1] was 4 µM and the Activity (HepG2) was “Non-toxic”.

Work on `Cc1cc(-c2c(C)cc3oc(=O)cc(-c4ccccc4)c3c2C)ccn1` yielded an IC90 [1] of 36 µM.

`Cc1cc2oc(=O)cc(-c3ccccc3)c2c(C)c1-c1cccc(F)c1` gave an IC90 [1] of 21 µM.

Work on `Cc1cc2oc(=O)cc(-c3ccccc3)c2c(C)c1-c1ccc(F)cc1` yielded an IC90 [1] of 26 µM.

Work on `Cc1ccc(-c2c(C)cc3oc(=O)cc(-c4ccccc4)c3c2C)cc1` yielded an IC90 [1] of 36 µM.

For `Cc1cc2oc(=O)cc(-c3ccccc3)c2c(C)c1-c1ccc(C)c2ccccc12`, the Activity [2] was “inactive”.

Compound `Cc1cc2oc(=O)cc(-c3cccc(N)c3)c2c(C)c1-c1ccc(CN2CCOCC2)cc1.Cl.Cl` has a Papp B→A at 10 µM [5] of 76.9 ×10⁻⁶ cm/s, a CLint scaled at 100 µM [6] of 80.3 mL/min/kg and a C0 [7] of 851 ng/mL. It also gave a clearance [8] of 31.1 mL/min/kg, a Tmax [9] of 4.98 min and an AUC(0-t) [10] of 3180 ng·h/mL. The C0 (Mus musculus [11]) was 642.06 ng/mL, the half-life [12] was 163 min and the MRT last [13] was 4.31 h. It also gave a CL/F [14] of 52.3 mL/min/kg, an AUC(0-inf) [15] of 536 ng·h/mL and a Tmax [16] of 2 h. It also gave an MRT last [17] of 1.36 h, a remaining at 8 h, 1 µM [18] of 112% and an AUC(0-t) [19] of 513 ng·h/mL. The Vd [20] was 3.91 L/kg, the bioavailability [21] was 62% and the Vd (Mus musculus [22]) was 12.25 L/kg. It also gave a half-life at 100 µM [23] of 518 min, a Papp A→B at 10 µM [24] of 34.5 ×10⁻⁶ cm/s and a half-life [25] of 87 min. The AUC(0-inf) [26] was 3190 ng·h/mL.

For `COc1ccccc1-c1c(C)cc2oc(=O)cc(-c3ccccc3)c2c1C`, the Activity [2] was “inactive”.

With `Cc1cc2oc(=O)cc(-c3cccc(NS(C)(=O)=O)c3)c2c(C)c1-c1ccc(CN2CCOCC2)cc1` the IC90 [1] was 59 µM.

Compound `CC(=O)c1ccc(-c2c(C)cc3oc(=O)cc(-c4ccccc4)c3c2C)cc1` has an IC90 [1] of 220 µM.

Work on `Cc1cc2oc(=O)cc(-c3ccccc3)c2c(C)c1-c1ccc(CN2CCOCC2)cc1` yielded an IC90 [1] of 0.5 µM, a solubility [27] of 36.1 µM (≈ 15.4 µg/mL) and a fraction unbound at 5 h, 1 µM [28] of 0.014. For the same compound, the remaining at 5 h, 1 µM [29] was 84.4% and the Activity (HepG2) was “Non-toxic”.

`Cc1cc2oc(=O)cc(-c3ccccc3)c2c(C)c1-c1cncnc1` gave an IC90 [1] of 8 µM.

`Cc1cc(C)c2c(-c3ccccc3)cc(=O)oc2c1` showed an IC90 [1] of 1100 µM.

With `Cc1cc2oc(=O)cc(-c3ccccc3)c2c(C)c1-c1cccc(Cl)c1` the IC90 [1] was 260 µM.

With `Cc1cc(-c2ccc3oc(=O)cc(-c4ccccc4)c3c2)c(C)cc1CO` the IC90 [1] was 170 µM.

For `Cc1cc2oc(=O)cc(-c3ccccc3)c2c(C)c1Br`, the Activity [2] was “inactive”.

In the case of `Cc1cc2oc(=O)cc(-c3ccccc3)c2c(C)c1-c1ccccc1Cl`, the IC90 [1] is reported as 22 µM and the Activity (HepG2) is reported as “Non-toxic”.

In the case of `Cc1cc2oc(=O)cc(-c3ccccc3)c2c(C)c1-c1ccc(CO)cc1`, the IC90 [1] is reported as 7 µM, the solubility [27] is reported as 0.2 µM (≈ 0.0713 µg/mL) and the fraction unbound at 5 h, 1 µM [28] is reported as 0.006. For the same compound, the remaining at 5 h, 1 µM [29] was 80.3% and the Activity (HepG2) was “Non-toxic”.

Work on `COc1cccc(-c2c(C)cc3oc(=O)cc(-c4ccccc4)c3c2C)c1` yielded an IC90 [1] of 31 µM.

For `Cc1cc2oc(=O)cc(-c3ccccc3)c2c(C)c1-c1cccnc1`, the IC90 [1] was 69 µM.

Compound `Cc1cc2oc(=O)cc(-c3ccccc3)c2c(C)c1-c1ccncc1` has an IC90 [1] of 2 µM, a solubility [27] of 3.2 µM (≈ 1.05 µg/mL) and a fraction unbound at 5 h, 1 µM [28] of 0.012. For the same compound, the remaining at 5 h, 1 µM [29] was 83.5% and the Activity (HepG2) was “Non-toxic”.

For `CNC(=O)c1ccc(-c2c(C)cc3oc(=O)cc(-c4ccccc4)c3c2C)cc1`, the IC90 [1] was 7 µM and the Activity (HepG2) was “Non-toxic”.

Work on `Cc1cc2oc(=O)cc(-c3cccc(N)c3)c2c(C)c1-c1ccc(CN2CCOCC2)cc1` yielded an IC90 [1] of 0.4 µM, a solubility [27] of 89.3 µM (≈ 39.3 µg/mL) and a fraction unbound at 5 h, 1 µM [28] of 0.013. The remaining at 5 h, 1 µM [29] was 88%.

Work on `Cc1cc2oc(=O)cc(-c3ccc(N)cc3)c2c(C)c1-c1ccc(CN2CCOCC2)cc1` yielded an IC90 [1] of 14 µM.

In the case of `Cc1cc2oc(=O)cc(-c3ccccc3)c2c(C)c1-c1ccc(CNC2CCCCC2)cc1`, the IC90 [1] is reported as 5 µM, the CC50 at 48 h [30] is reported as 32 µM and the Activity (HepG2) is reported as “Non-toxic”.

In the case of `CCCCCCNCc1ccc(-c2c(C)cc3oc(=O)cc(-c4ccccc4)c3c2C)cc1`, the IC90 [1] is reported as 4 µM.
